Results: patent US20190315814A1, “LANTIBIOTIC VARIANTS AND USES THEREOF” (priority 2016, published 2019)
Values after ≈ are worked out from the molar mass of the structure shown. Read-outs that look alike come from different tables or passages of the source.

What was measured:
[1] = system: Eggerthella lenta (ATCC 27337)
[2] = system: Clostridium scindens (ATCC 35704)
[3] = system: VRE Enterococcus faecalis; conditions: VRE
[4] = system: Peptostreptococcus anaerobius (ATCC 27337)
[5] = system: Lactobacillus acidophilus (CCUG 4356)
[6] = simulated gi fluid
[7] = system: Clostridium difficile UNT103-1; assay: Second non-cannulated Syrian hamster C. difficile infection model, oral gavage dose range-finding; format: in vivo, Golden Syrian hamsters
Experimental: (§1) Following the recovery phase, male Golden Syrian hamsters were inoculated with Clostridium difficile UNT103-1 (VA11, non epidemic (cdtB-, REA group J) Curtis Donskey, Cleveland VA Hospital, Cleveland, Ohio). On Day 1, at 24 hrs after infection, all animals received a single subcutaneous injection of clindamycin (10 mg/kg). Test article formulated at 3 to 5 different doses were administered three times per day (TID), starting on Day 2 at 18 hours after Clindamycin injection, for 5 consecutive days (Days 2 through 6), and followed until Day 22 to assess recurrence. Vancomycin (positive control) was administered once a day at 20 mg/kg on Days 2 through 6. Cecal spore counts and Toxins A and B were determined as described above.

in vitro = conditions: simulated gi fluid
Experimental: Assay incubation conditions included […] simulated gastric fluid (SGF, USP 39 Test Solution; 2 g/L NaCl, 7 mL/L glacial HCl, pH 1.4) containing 1.75 mg/mL Pepsin (3200-4500 U/mg) mixed with 7.5 μL of 10 mg/mL variant (or positive control, NH2-Met-Arg-Phe-Ala-OH, MRFA, CAS#67368-29-0) for a final concentration of 300 μg/ml variant in a microfuge tube. Samples were incubated at 37° C. and analyzed using HPLC or LC-MS for loss of substrate. The percent remaining, elimination rate constant (Ke), and in vitro protein half-lives were calculated. A control of SGF without enzyme was also run and analyzed in the same manner for each variant.

[8] = system: Clostridium difficile UNT103-1; assay: Non-cannulated Syrian hamster C. difficile infection model, oral gavage; format: in vivo, Golden Syrian hamsters; conditions: for Percent Survival at Day-22: oral gavage TID Days 2-6, vancomycin 20 mg/kg once a day; for Toxin A level at Day-22: first value of A/B cell; for Toxin A level at Day-22 / Toxin B level at Day-22: limit of detection 0.8; for Mean LOG10 CFU/mL of feces homogenates (cecal spore counts) at Day-22: limit of detection 2.40; for Toxin B level at Day-22: second value of A/B cell
Experimental: as §1, with “formulations” for “formulated at 3 to 5 different doses”, “above” for “above.”

[9] = FaSSIF + 1% pancreatin + 3 μg/ml trypsin + 3 μg/ml chymotrypsin half-life

| Structure (SMILES) | MIC E. lenta [1] [µg/mL] | MIC C. scindens [2] [µg/mL] | MIC to H. Pylori without EDTA (Heliobacter pylori) [µg/mL] | MIC to H. Pylori with 0.05M EDTA (Heliobacter pylori) [µg/mL] | MIC VRE ATCC 51575 [3] [µg/mL] | MIC VRE CCUG 47775 [3] [µg/mL] | MIC VRE ATCC 700221 (VRE Enterococcus faecium) [µg/mL] | MIC P. anaerobius [4] [µg/mL] | MIC L. acidophilus [5] [µg/mL] | half-life [6, 9] [min] | half-life ([6]; FaSSIF only half-life) [min] | half-life (in vitro) [min] | Percent Survival at Day-22 [8] [%] | Toxin A level at Day-22 ([8]; oral gavage) [ng/mL] | Mean LOG10 CFU/mL of feces homogenates (cecal spore counts) at Day-22 ([8]; oral gavage) [LOG10 CFU/mL] | Toxin B level at Day-22 ([8]; oral gavage) [ng/mL] | also measured |
| --- | --- | --- | --- | --- | --- | --- | --- | --- | --- | --- | --- | --- | --- | --- | --- | --- | --- |
| C=C1NC(=O)[C@H](Cc2c[nH]c3ccccc23)NC(=O)[C@H](NC(=O)[C@H](CCCCN)NC(=O)[C@@H](N)[C@@H](C)CC)CSC[C@@H](C(=O)N[C@H]2C(=O)N3CCC[C@H]3C(=O)NCC(=O)N[C@H](C(=O)N[C@@H](C)C(=O)N[C@@H](CC(N)=O)C(=O)NC(=CC)C(=O)NCC(=O)N[C@@H]3CSC[C@@H]4NC(=O)[C@H](Cc5ccccc5)NC(=O)[C@@H](CS/C=C\NC4=O)NC(=O)[C@H](CC(N)=O)NC(=O)[C@H](Cc4ccccc4)NC3=O)CS[C@H]2C)NC(=O)[C@H](CC(C)C)NC1=O [F1I R13N Y20F] | 0.125 (≈ 0.0575 µM) | 2 (≈ 0.921 µM) | 8 (≈ 3.68 µM) | 4 | 8 (≈ 3.68 µM) | 16 (≈ 7.36 µM) | 8 (≈ 3.68 µM) | 0.125 (≈ 0.0575 µM) | 0.5 (≈ 0.23 µM) | > 720 | > 720 | > 1440 | 83 | 5.1 | 2.65 | 6 | Mean LOG10 CFU/mL of feces homogenates (cecal spore counts) at Day-22 ([7]; 6 mg/Kg oral gavage TID): 5.47 LOG10 CFU/mL; Toxin A level at Day-22 ([7]; 6 mg/Kg oral gavage TID): 215.5 ng/mL; Toxin B level at Day-22 ([7]; 6 mg/Kg oral gavage TID): 242.2 ng/mL; Percent Survival at Day-22 ([7]; 6 mg/Kg oral gavage TID Days 2-6): 0%; Mean LOG10 CFU/mL of feces homogenates (cecal spore counts) at Day-22 ([7]; 20 mg/Kg oral gavage TID): 5.37 LOG10 CFU/mL; Toxin A level at Day-22 ([7]; 20 mg/Kg oral gavage TID): 165.5 ng/mL; Toxin B level at Day-22 ([7]; 20 mg/Kg oral gavage TID): 272.3 ng/mL; Percent Survival at Day-22 ([7]; 20 mg/Kg oral gavage TID Days 2-6): 33%; Mean LOG10 CFU/mL of feces homogenates (cecal spore counts) at Day-22 ([7]; 60 mg/Kg oral gavage TID): 3.18 LOG10 CFU/mL; Toxin A level at Day-22 ([7]; 60 mg/Kg oral gavage TID): 47.6 ng/mL; Toxin B level at Day-22 ([7]; 60 mg/Kg oral gavage TID): 108.7 ng/mL; Percent Survival at Day-22 ([7]; 60 mg/Kg oral gavage TID Days 2-6): 83%; Efficacy compared with Vancomycin-treated animals ([8]; end of the study at Day 22, oral gavage, in words): equal or superior efficacy |
| C=C1NC(=O)[C@H](Cc2c[nH]c3ccccc23)NC(=O)[C@H](NC(=O)[C@H](CCCCN)NC(=O)[C@@H](N)[C@@H](C)CC)CSC[C@@H](C(=O)N[C@H]2C(=O)N3CCC[C@H]3C(=O)NCC(=O)N[C@H](C(=O)N[C@@H](C)C(=O)N[C@@H](CC(N)=O)C(=O)NC(=CC)C(=O)NCC(=O)N[C@@H]3CSC[C@@H]4NC(=O)[C@H](Cc5ccc(O)cc5)NC(=O)[C@@H](CS/C=C\NC4=O)NC(=O)[C@H](CC(N)=O)NC(=O)[C@H](Cc4ccccc4)NC3=O)CS[C@H]2C)NC(=O)[C@H](CC(C)C)NC1=O [F1I R13N] | 0.5 (≈ 0.228 µM) | 2 (≈ 0.914 µM) | 8 (≈ 3.66 µM) | 8 | 16 (≈ 7.31 µM) | 16 (≈ 7.31 µM) | 32 (≈ 14.6 µM) | 0.25 (≈ 0.114 µM) | 0.5 (≈ 0.228 µM) | > 720 | > 720 | > 1440 | 66 | 138.1 | 3.64 | 120.2 |  |
| C=C1NC(=O)[C@H](Cc2c[nH]c3ccccc23)NC(=O)[C@H](NC(=O)[C@H](CCCCN)NC(=O)[C@@H](N)CC(C)C)CSC[C@@H](C(=O)N[C@H]2C(=O)N3CCC[C@H]3C(=O)NCC(=O)N[C@H](C(=O)N[C@@H](C)C(=O)N[C@@H](C)C(=O)NC(=CC)C(=O)NCC(=O)N[C@@H]3CSC[C@@H]4NC(=O)[C@H](Cc5ccc(O)cc5)NC(=O)[C@@H](CS/C=C\NC4=O)NC(=O)[C@H](CC(N)=O)NC(=O)[C@H](Cc4ccccc4)NC3=O)CS[C@H]2C)NC(=O)[C@H](CC(C)C)NC1=O [F1L R13A] | 0.5 (≈ 0.233 µM) | 4 (≈ 1.86 µM) | 8 (≈ 3.73 µM) | 8 | 32 (≈ 14.9 µM) | 16 (≈ 7.46 µM) | 16 (≈ 7.46 µM) | 0.5 (≈ 0.233 µM) | 0.5 (≈ 0.233 µM) | > 720 | > 720 | > 1440 | 0 | 4532.5 | 7.28 | 1795.5 |  |
| C=C1NC(=O)[C@H](Cc2c[nH]c3ccccc23)NC(=O)[C@H](NC(=O)[C@H](CCCCN)NC(=O)[C@@H](N)CC(C)C)CSC[C@@H](C(=O)N[C@H]2C(=O)N3CCC[C@H]3C(=O)NCC(=O)N[C@H](C(=O)N[C@@H](C)C(=O)N[C@@H](CC(N)=O)C(=O)NC(=CC)C(=O)NCC(=O)N[C@@H]3CSC[C@@H]4NC(=O)[C@H](Cc5ccc(O)cc5)NC(=O)[C@@H](CS/C=C\NC4=O)NC(=O)[C@H](CC(N)=O)NC(=O)[C@H](Cc4ccccc4)NC3=O)CS[C@H]2C)NC(=O)[C@H](CC(C)C)NC1=O [F1L R13N] | 0.25 (≈ 0.114 µM) | 4 (≈ 1.83 µM) | 8 (≈ 3.66 µM) | 8 | 16 (≈ 7.31 µM) | 16 (≈ 7.31 µM) | 16 (≈ 7.31 µM) | 0.25 (≈ 0.114 µM) | 0.5 (≈ 0.228 µM) | > 720 | > 720 | > 1440 | 0 | 5477.8 | 7.36 | 2189.1 |  |
